Experimental data published in patent EP3322687B1, “2-BENZYL-INDANONE COMPOUNDS AS ANTICANCER AGENT AND A PROCESS FOR PREPARATION THEREOF” (Council of Scientific and Industrial Research, priority 2015, dated 2017).

What was measured:
[1] = In-vivo acute oral toxicity; parameters: species or system Swiss albino mice; conditions: for ALP / Albumin / Bilirubin / Body weight / Cholesterol / Creatinine / Haemoglobin / RBC / SGOT / SGPT / Serum Protein / Triglycerides / WBC: 7th day, Mean±SE, n=6
Protocol: In view of potent anti-cancer activity of compound 2 in in-vitro model, acute and sub-acute oral toxicity of the same was carried out in Swiss albino mice for its further development into drug product. Experiment was conducted in accordance with the Organization for Economic Cooperation and Development (OECD) test guideline No 423 (1987).
For the acute oral toxicity study, 30 mice (15 male and 15 female) were taken and divided into […] comprising 3 male and 3 female mice in each group weighing between 20-25 g. The animals were maintained at 22±5°C with humidity control and also on an automatic dark and light cycle of 12 hours. The animals were fed with the standard mice feed and provided ad libitum drinking water. Mice of group 1 (Group 1) were kept as control and animals of groups 2, 3, 4 and 5 (Groups II, III, IV & V) were kept as experimental. The animals were acclimatized for 7 days in the experimental environment prior to the actual experimentation. The test compound 2 was solubilized in dimethyl sulphoxide and then suspended in double distilled water (DDW) and was given at 5, 50, 300 and 1000mg/kg body weight to animals of groups 2, 3, 4 and 5 (Groups II, III, IV & V) respectively once orally. Control animals received only vehicle.
The animals were checked for mortality and any signs of ill health at hourly interval on the day of administration of drug and there after a daily general case side clinical examination was carried out including changes in skin, mucous membrane, eyes, occurrence of secretion and excretion and also responses like lachrymation, piloerection respiratory patterns etc. Also changes in gait, posture and response to handling were also recorded. In addition to observational study, body weights were recorded and blood and serum samples were collected from all the animals on 7th day of the experiment in acute oral toxicity. The samples were analysed for total RBC, WBC, differential leucocytes count, haemoglobin percentage and biochemical parameters like ALP, SGPT, SGOT, total cholesterol, triglycerides, creatinine, bilirubin, serum protein, tissue protein, malonaldehyde and reduced GSH activity. The animals were then sacrificed and were necropsed for any gross pathological changes. Weights of vital organs like liver, heart, kidney etc. were recorded. Table 7. Effect of compound 2 as a single acute oral dose at 5, 50, 300 and 1000 mg/kg on body weight, haematological and serum biochemical parameters in Swiss albino mice (Mean±SE; n=6; a, P<0.001 compared to control, 5, 50, 300, 1000 mg/kg)

[2] = system: Ehrlich Ascites Carcinoma (EAC); assay type: in vivo, Swiss mice
Protocol: Ehrlich ascites carcinoma (EAC) cells were collected from the peritoneal cavity of the Swiss mice harbouring 8-10 days old ascitic tumor. 1x10^7 EAC cells were injected intraperitoneally in Swiss mice selected for the experiment on day 0. The next day, animals were randomized and divided into different groups. The treatment groups contained 7 animals each and control group contained 10 animals. The treatment group was treated with 20 mg/kg of Compound 2 intra-peritoneally from day 1-9. One more of the treatment group received 5-fluorouracil (20 mg/kg, i.p) and it served as positive control. The tumor bearing control group was similarly administered normal saline (0.2 ml, i.p.). On day 12, animals were sacrificed and ascitic fluid was collected from peritoneal cavity of each mouse for the evaluation of tumor growth. Percent tumor growth inhibition was calculated based on the total number of tumor cells present in the peritoneal cavity as on day 12 of the experiment using the following formula. Percent tumor growth inhibition = (Av.no.of cells in control group−Av.no.of cells in treated group)/(Av.no.of cells in control group) × 100 [formula]

COc1cc(C2c3c(cc(OC)c(OC)c3OC)C(=O)C2Cc2ccc3c(c2)OCO3)cc(OC)c1OC (stereo not drawn) [Compound 2, 2-(3",4"-methylenedioxybenzyl)-3-(3',4',5'-trimethoxyphenyl)-4,5,6-trimethoxy-indan-1-one]
ALP change as compare to control groups ([1]; 1000 mg/kg body weight, single oral dose): significant changes
differential leucocytes counts ([1]; single acute oral dose at 5, 50, 300 and 1000 mg/kg body weight, n=6, compared to control (Figure 2)): Non significant changes
absolute and relative organ weight ([1]; single acute oral dose at 5, 50, 300 and 1000 mg/kg, n=6, compared to control (Figure 1)): Non significant changes
observational changes, morbidity and mortality ([1]; single acute oral dose, up to the dose level of 1000 mg/kg body weight): No observational changes, morbidity and mortality
ALP ([1]; single oral dose 5 mg/kg): 167.3±16.5 U/L
Albumin ([1]; single oral dose 5 mg/kg): 3.63 ± 0.28 g/dL
Bilirubin ([1]; single oral dose 5 mg/kg): 0.14 ± 0.07 mg/dL
Body weight ([1]; single oral dose 5 mg/kg): 23.97±0.64 gm
Cholesterol ([1]; single oral dose 5 mg/kg): 104.0 ± 6.7 mg/dL
Creatinine ([1]; single oral dose 5 mg/kg): 0.56 ± 0.10 mg/dL
Haemoglobin ([1]; single oral dose 5 mg/kg): 13.55±0.60 gm/dL
RBC ([1]; single oral dose 5 mg/kg): 5.93±0.39 million/mm3
SGOT ([1]; single oral dose 5 mg/kg): 12.24±1.18 U/L
SGPT ([1]; single oral dose 5 mg/kg): 15.74±1.03 U/L
Serum Protein ([1]; single oral dose 5 mg/kg): 1.07 ± 0.06 mg/mL
Triglycerides ([1]; single oral dose 5 mg/kg): 98.74 ± 3.11 mg/dL
WBC ([1]; single oral dose 5 mg/kg): 7.95±0.64 1000*/mm3
ALP ([1]; single oral dose 50 mg/kg): 191.6±27.6 U/L
Bilirubin ([1]; single oral dose 50 mg/kg): 0.09 ± 0.01 mg/dL
Body weight ([1]; single oral dose 50 mg/kg): 24.29±0.95 gm
Cholesterol ([1]; single oral dose 50 mg/kg): 120.3 ± 10.4 mg/dL
Creatinine ([1]; single oral dose 50 mg/kg): 0.69 ± 0.08 mg/dL
Haemoglobin ([1]; single oral dose 50 mg/kg): 13.06±0.82 gm/dL
RBC ([1]; single oral dose 50 mg/kg): 5.83±0.17 million/mm3
SGOT ([1]; single oral dose 50 mg/kg): 25.76±5.40 U/L
SGPT ([1]; single oral dose 50 mg/kg): 17.92±1.69 U/L
Serum Protein ([1]; single oral dose 50 mg/kg): 1.13 ± 0.07 mg/mL
Triglycerides ([1]; single oral dose 50 mg/kg): 74.95 ± 5.79 mg/dL
WBC ([1]; single oral dose 50 mg/kg): 7.99±0.55 1000*/mm3
ALP ([1]; single oral dose 300 mg/kg): 224.0±6.70 U/L
Albumin ([1]; single oral dose 300 mg/kg): 3.63 ± 0.28 g/dL
Body weight ([1]; single oral dose 300 mg/kg): 23.83±0.42 gm
Cholesterol ([1]; single oral dose 300 mg/kg): 116.5 ± 15.6 mg/dL
Creatinine ([1]; single oral dose 300 mg/kg): 0.76 ± 0.03 mg/dL
Haemoglobin ([1]; single oral dose 300 mg/kg): 10.90±1.11 gm/dL
RBC ([1]; single oral dose 300 mg/kg): 6.03±0.11 million/mm3
SGOT ([1]; single oral dose 300 mg/kg): 18.71±3.16 U/L
SGPT ([1]; single oral dose 300 mg/kg): 18.20±1.41 U/L
Serum Protein ([1]; single oral dose 300 mg/kg): 1.09 ± 0.06 mg/mL
Triglycerides ([1]; single oral dose 300 mg/kg): 104.94 ± 10.39 mg/dL
WBC ([1]; single oral dose 300 mg/kg): 8.13±0.64 1000*/mm3
ALP ([1]; single oral dose 1000 mg/kg): 234.3±44.5 U/L
Albumin ([1]; single oral dose 1000 mg/kg): 3.26 ± 0.30 g/dL
Bilirubin ([1]; single oral dose 1000 mg/kg): 0.12 ± 0.04 mg/dL
Body weight ([1]; single oral dose 1000 mg/kg): 23.41±0.16 gm
Creatinine ([1]; single oral dose 1000 mg/kg): 0.76 ± 0.09 mg/dL
Haemoglobin ([1]; single oral dose 1000 mg/kg): 12.29±0.53 gm/dL
RBC ([1]; single oral dose 1000 mg/kg): 6.10±0.27 million/mm3
SGOT ([1]; single oral dose 1000 mg/kg): 35.49±6.57 U/L
SGPT ([1]; single oral dose 1000 mg/kg): 11.97±1.67 U/L
Serum Protein ([1]; single oral dose 1000 mg/kg): 1.42 ± 0.16 mg/mL
Triglycerides ([1]; single oral dose 1000 mg/kg): 87.28 ± 4.39 mg/dL
WBC ([1]; single oral dose 1000 mg/kg): 8.57±0.76 1000*/mm3
toxicity in in-vivo acute oral toxicity ([1]; up to 300mg/kg): no toxicity
tolerability ([1]; up to the dose level of 1000 mg/kg body weight as a single acute oral dose): well tolerated
%Tumor Growth Inhibition ([2]; 20 mg/kg i/p day 1-9, Day 12): 67.64%
Av, Volume of ascitic fluid ([2]; 20 mg/kg i/p day 1-9, Day 12): 6.31 mL
Av. No. of tumor cells ([2]; 20 mg/kg i/p day 1-9, Day 12): 44.78 x 10^7
Av. Weight of ascitic fluid ([2]; 20 mg/kg i/p day 1-9, Day 12): 6.02 g
% Tumor cell growth ([2]; 20 mg/kg i/p day 1-9, Day 12, control = 100): 32.36%
Mortality ([2]; 20 mg/kg i/p day 1-9, Day 12, dead/total animals): 0/7
Body weight Day 1 ([2]; 20 mg/kg i/p day 1-9, EAC-bearing female Swiss mice, Day 1): 21.0 g
Body weight Day 5 ([2]; 20 mg/kg i/p day 1-9, EAC-bearing female Swiss mice, Day 5): 21.86 g
Body weight Day 9 ([2]; 20 mg/kg i/p day 1-9, EAC-bearing female Swiss mice, Day 9): 22.28 g
Body weight Day 12 ([2]; 20 mg/kg i/p day 1-9, EAC-bearing female Swiss mice, Day 12): 22.66 g
better activity (in-vivo) over the parent compound 12 ([2]; Ehrlich ascites carcinoma, 20mg/kg dose, relative to compound 12): 48.72%
